ChEMBL document CHEMBL5537158, “Polymyxins with Potent Antibacterial Activity against Colistin-Resistant Pathogens: Fine-Tuning Hydrophobicity with Unnatural Amino Acids” (J Med Chem, 2024)
Values after ≈ are worked out from the molar mass of the structure shown. Active and inactive are the calls of the source. The calls are words filed in the database; no cut-off is given here. Positions of bridges follow the written chain, without caps; N, C: chain ends. Non-standard residues stand in square brackets, D forms with d. Residues, ends and D or L forms follow the SMILES beside them. *: point of attachment. d(hLeu) = CC(C)CC[C@@H](N)C(=O)O; Octanoyl = CCCCCCCC(=O)*; Dab = NCC[C@H](N)C(=O)O

Experiments:
Klebsiella pneumoniae = experiment: Antimicrobial activity against Klebsiella pneumoniae ATCC 13883 assessed as bacterial growth inhibition incubated for 20 hrs by broth microdilution method; assay type: functional
Acinetobacter baumannii [1] = experiment: Antimicrobial activity against Acinetobacter baumannii ATCC 19606 assessed as bacterial growth inhibition incubated for 20 hrs by broth microdilution method; assay type: functional
[2] = Hemolytic activity in human RBC at 400 ug/ml after 1 hr; assay type: toxicity, cell-based, Erythrocyte; settings: red blood cells (erythrocytes), at 400 µg/mL, read-out: Activity
Escherichia coli [3] = experiment: Antimicrobial activity against […] Escherichia coli harboring mcr-1 assessed as bacterial growth inhibition incubated for 20 hrs by broth microdilution method; assay type: functional
Pseudomonas aeruginosa [4] = experiment: Antimicrobial activity against Pseudomonas aeruginosa PAO1 assessed as bacterial growth inhibition incubated for 20 hrs by broth microdilution method; assay type: functional
Escherichia coli [5] = experiment: Antibacterial activity against Escherichia coli ATCC 25922 assessed as bacterial growth inhibition incubated for 20 hrs by broth microdilution method; assay type: functional
Pseudomonas aeruginosa [6] = experiment: Antimicrobial activity against colistin resistant Pseudomonas aeruginosa 7197/19 assessed as bacterial growth inhibition incubated for 20 hrs by broth microdilution method; assay type: functional
Cell membrane = experiment: Induction of membrane destabilization in Escherichia coli MG1655 assessed as SYTOX uptake at 2 times MIC measured every 5 mins for 120 mins by microplate reader assay; assay type: cell membranes
Acinetobacter baumannii [7] = experiment: Antimicrobial activity against colistin resistant Acinetobacter baumannii ATCC 3658/17 assessed as bacterial growth inhibition incubated for 20 hrs by broth microdilution method; assay type: functional

Compound	MIC (Klebsiella pneumoniae) [µg/mL]	MIC (Acinetobacter baumannii [1]) [µg/mL]	hemolysis at 1 h, 400 ug/ml [2] [%]	MIC (Escherichia coli [3]) [µg/mL]	MIC (Pseudomonas aeruginosa [4]) [µg/mL]	MIC (Escherichia coli [5]) [µg/mL]	MIC (Pseudomonas aeruginosa [6]) [µg/mL]	Activity (Cell membrane)	MIC (Acinetobacter baumannii [7]) [µg/mL]
CC(=O)N[C@H](Cc1ccc(Cl)cc1)C(=O)N[C@@H](CCN)C(=O)N[C@H](C(=O)N[C@@H](CCN)C(=O)N[C@H]1CCNC(=O)[C@H]([C@@H](C)O)NC(=O)[C@H](CCN)NC(=O)[C@H](CCN)NC(=O)[C@H](CC(C)C)NC(=O)[C@@H](Cc2ccccc2)NC(=O)[C@@H](CCN)NC1=O)[C@H](C)O	16 (≈ 12.4 µM)	0.5 (≈ 0.389 µM)	< 10						
CC(=O)N[C@H](Cc1c(F)c(F)c(F)c(F)c1F)C(=O)N[C@@H](CCN)C(=O)N[C@H](C(=O)N[C@@H](CCN)C(=O)N[C@H]1CCNC(=O)[C@H]([C@@H](C)O)NC(=O)[C@H](CCN)NC(=O)[C@H](CCN)NC(=O)[C@H](CC(C)C)NC(=O)[C@@H](Cc2ccccc2)NC(=O)[C@@H](CCN)NC1=O)[C@H](C)O	8 (≈ 5.96 µM)		< 10	8 (≈ 5.96 µM)	0.25 (≈ 0.186 µM)	< 0.125			
CC(=O)N[C@H](Cc1ccc(Br)cc1)C(=O)N[C@@H](CCN)C(=O)N[C@H](C(=O)N[C@@H](CCN)C(=O)N[C@H]1CCNC(=O)[C@H]([C@@H](C)O)NC(=O)[C@H](CCN)NC(=O)[C@H](CCN)NC(=O)[C@H](CC(C)C)NC(=O)[C@@H](Cc2ccccc2)NC(=O)[C@@H](CCN)NC1=O)[C@H](C)O	8 (≈ 6.01 µM)		< 10		0.125 (≈ 0.0939 µM)	0.06 (≈ 0.0451 µM)	16 (≈ 12 µM)		
CC(=O)N[C@H](Cc1ccc(C(F)(F)F)cc1)C(=O)N[C@@H](CCN)C(=O)N[C@H](C(=O)N[C@@H](CCN)C(=O)N[C@H]1CCNC(=O)[C@H]([C@@H](C)O)NC(=O)[C@H](CCN)NC(=O)[C@H](CCN)NC(=O)[C@H](CC(C)C)NC(=O)[C@@H](Cc2ccccc2)NC(=O)[C@@H](CCN)NC1=O)[C@H](C)O	8 (≈ 6.06 µM)	0.5 (≈ 0.379 µM)	< 10	4 (≈ 3.03 µM)	0.25 (≈ 0.189 µM)		32 (≈ 24.2 µM)		
CCCCCCCC(=O)N[C@@H](CCN)C(=O)N[C@H](C(=O)N[C@@H](CCN)C(=O)N[C@H]1CCNC(=O)[C@H]([C@@H](C)O)NC(=O)[C@H](CCN)NC(=O)[C@H](CCN)NC(=O)C(CCCCCC)NC(=O)[C@@H](Cc2ccccc2)NC(=O)[C@@H](CCN)NC1=O)[C@H](C)O (some centres not stated)								Active	
CCCCCCCC(=O)N[C@@H](CCN)C(=O)N[C@H](C(=O)N[C@@H](CCN)C(=O)N[C@H]1CCNC(=O)[C@H]([C@@H](C)O)NC(=O)[C@H](CCN)NC(=O)[C@H](CCN)NC(=O)C(CCCc2ccccc2)NC(=O)[C@@H](Cc2ccccc2)NC(=O)[C@@H](CCN)NC1=O)[C@H](C)O (some centres not stated)								Active	
CCCCCCCC(=O)N[C@@H](CCN)C(=O)N[C@H](C(=O)N[C@@H](CCN)C(=O)N[C@H]1CCNC(=O)[C@H]([C@@H](C)O)NC(=O)[C@H](CCN)NC(=O)[C@H](CCN)NC(=O)[C@H](CC(C)C)NC(=O)[C@@H](Cc2ccc(Br)cc2)NC(=O)[C@@H](CCN)NC1=O)[C@H](C)O								Active	
CCCCCCCC(=O)N[C@@H](CCN)C(=O)N[C@H](C(=O)N[C@@H](CCN)C(=O)N[C@H]1CCNC(=O)[C@H]([C@@H](C)O)NC(=O)[C@H](CCN)NC(=O)[C@H](CCN)NC(=O)[C@H](Cc2ccccc2)NC(=O)[C@@H](CCC(C)C)NC(=O)[C@H](CCN)NC1=O)[C@@H](C)O (Octanoyl-[Dab]T[Dab][Dab][Dab][d(hLeu)]F[Dab][Dab]T; lactam 4-C)	0.5 (≈ 0.415 µM)	< 0.125				< 0.125	0.23 (≈ 0.191 µM)		1 (≈ 0.831 µM)
